In patent publication US8822467B2 (Ligand Pharmaceuticals Inc., priority 2009, dated 2014):
pIC50: −log10 of the molar value.

What follows are compounds tested against T1, human CRTH2 (Homo sapiens, UniProt Q9Y5Y4) (assay: [35S]GTPγS binding assay (SPA) on membranes from CHO-K1 cells stably expressing human CRTH2, stimulated with 60 nM DHK-PGD2). Conditions: membranes of CHO-K1 cells expressing human CRTH2; 60 nM DHK-PGD2; Table 1; read-out: CRTH2 hGTPγS IC50.
T1 construct: expressed in transfected cells
T1 sequence (Q9Y5Y4 1-395): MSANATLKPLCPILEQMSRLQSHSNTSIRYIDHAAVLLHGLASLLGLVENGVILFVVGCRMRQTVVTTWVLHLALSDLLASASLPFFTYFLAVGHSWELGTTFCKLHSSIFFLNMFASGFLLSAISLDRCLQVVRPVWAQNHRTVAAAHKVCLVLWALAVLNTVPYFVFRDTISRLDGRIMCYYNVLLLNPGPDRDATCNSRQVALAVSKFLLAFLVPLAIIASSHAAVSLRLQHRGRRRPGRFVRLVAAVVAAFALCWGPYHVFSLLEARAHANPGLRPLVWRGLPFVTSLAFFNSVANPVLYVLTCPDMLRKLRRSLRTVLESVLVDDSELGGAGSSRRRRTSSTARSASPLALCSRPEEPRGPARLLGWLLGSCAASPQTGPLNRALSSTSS
Assay type: biochemical
Experimental: [^35S]GTPγS Binding Assay
SPA [^35S]G-TPγS binding was performed on membranes from CHO-K1 cells stably expressing human CRTH2. To a white, clear-bottomed 384-well plate, 4 μg membrane protein was incubated in the binding buffer (20 mM HEPES, pH 7.4, 10 mM MgCl2, 300 mM NaCl, 0.2% BSA) with 60 nM DHK-PGD2, 500 pM [^35S]GTPγS, 10 μM GDP, and 100 μg wheat germ agglutinin-coupled SPA beads (GE Healthcare) with and without increasing concentrations of compounds. The final assay volume was 40 μL and contained 1% DMSO. Samples were incubated for 2 h at ambient temperature. Plates were centrifuged 5 min at 1500 rpm. Plates were read after an additional 4 h using the Trilux 1450 Microbeta (PerkinElmer) with a 30 sec/well reading time.

pIC50 | SMILES
9.22 | COc1cc(F)cc(-c2cc(CN(C)S(=O)(=O)c3ccc(F)c(Cl)c3)ccc2OCC(=O)O)c1 [Example 37, 2-(3-fluoro-5-methoxyphenyl)-4-((3-chloro-4-fluoro-N-methylphenylsulfonamido)methyl)phenoxyacetic acid]
8.74 | CN(Cc1ccc(OCC(=O)O)c(-c2cc(F)cc(C#N)c2)c1)S(=O)(=O)c1ccc(F)c(F)c1 [Example 44, 2-(3-cyano-5-fluorophenyl)-4-((3,4-difluoro-N-methylphenylsulfonamido)methyl)phenoxyacetic acid]

Same assay, conditions: potency class symbols; Table 2; read-out: CRTH2 hGTPγS IC50

pIC50 | SMILES
6.00 to 7.00 | CN(Cc1ccc(OCC(=O)O)c(-c2cccc(Br)c2)c1)S(=O)(=O)c1ccc(F)cc1 [Example 142, 2-(3-bromophenyl)-4-((4-fluoro-N-methylphenylsulfonamido)methyl)phenoxyacetic acid]
> 7.00 | Cc1cc(S(=O)(=O)N(C)Cc2ccc(OCC(=O)O)c(-c3cccc(C#N)c3)c2)ccc1F [Example 66, 2-(3-cyanophenyl)-4-((3-methyl-4-fluoro-N-methylphenylsulfonamido)methyl)phenoxyacetic acid]
6.00 to 7.00 | CN(Cc1ccc(OCC(=O)O)c(-c2cccc(C(F)(F)F)n2)c1)S(=O)(=O)c1ccc(F)cc1 [Example 127, 2-(6-trifluoromethyl-2-pyridinyl)-4-((4-fluoro-N-methylphenylsulfonamido)methyl)phenoxyacetic acid]
5.00 to 6.00 | CN(Cc1ccc(OCC(=O)O)c(-c2ccc[n+]([O-])c2)c1)S(=O)(=O)c1ccc(F)cc1 [Example 176, 2-(N-oxy-pyridine-3-yl)-4-((4-fluoro-N-methylphenylsulfonamido)methyl)phenoxyacetic acid]
5.00 to 6.00 | CN(Cc1ccc(OCC(=O)O)c(-c2cccc3ncccc23)c1)S(=O)(=O)c1ccc(F)cc1 [Example 180, 2-(quinolin-5-yl)-4-((4-fluoro-N-methylphenylsulfonamido)methyl)phenoxyacetic acid]
> 7.00 | CC(c1ccc(OCC(=O)O)c(-c2cccc(C(F)(F)F)c2)c1)N(C)S(=O)(=O)c1ccc(F)c(F)c1 (stereo not shown) [Example 93, 2-(3-trifluoromethylphenyl)-4-(1-(3,4-difluoro-N-methylphenylsulfonamido)ethyl)phenoxyacetic acid]
> 7.00 | CN(Cc1ccc(OCC(=O)O)c(-c2cccc(S(C)(=O)=O)c2)c1)S(=O)(=O)c1ccc(F)c(Cl)c1 [Example 39, 2-(3-methylsulfonylphenyl)-4-((3-chloro-4-fluoro-N-methylphenylsulfonamido)methyl)phenoxyacetic acid]
> 7.00 | N#Cc1cccc(-c2cc(CNS(=O)(=O)c3ccc(F)cc3)ccc2OCC(=O)O)c1 [Example 9, 2-(2-(3-cyanophenyl)-4-((4-fluorophenylsulfonamido)methyl)phenoxy)acetic acid]
> 7.00 | COc1cc(F)cc(-c2cc(CN(C)S(=O)(=O)c3ccc(F)c(Cl)c3)ccc2OCC(=O)O)c1 [Example 37, 2-(3-fluoro-5-methoxyphenyl)-4-((3-chloro-4-fluoro-N-methylphenylsulfonamido)methyl)phenoxyacetic acid]
> 7.00 | CN(Cc1ccc(OCC(=O)O)c(-c2cc(F)cc(C#N)c2)c1)S(=O)(=O)c1cccs1 [Example 190, 2-(3-cyano-5-fluorophenyl)-4-((N-methylthiophene-2-sulfonamido)methyl)phenoxyacetic acid]
6.00 to 7.00 | CN(Cc1ccc(OCC(=O)O)c(-c2cccc(C(F)(F)F)c2)c1)S(=O)(=O)c1ccc(Cl)cc1 [Example 116, 2-(3-trifluoromethylphenyl)-4-((4-chloro-N-methylphenylsulfonamido)methyl)phenoxyacetic acid]
> 7.00 | CN(Cc1ccc(OCC(=O)O)c(-c2cc(F)cc(C#N)c2)c1)S(=O)(=O)c1ccc(F)c(F)c1 [Example 44, 2-(3-cyano-5-fluorophenyl)-4-((3,4-difluoro-N-methylphenylsulfonamido)methyl)phenoxyacetic acid]
> 7.00 | CN(Cc1ccc(OCC(=O)O)c(-c2cc(F)cc(C#N)c2)c1)S(=O)(=O)c1cccc(F)c1 [Example 61, 2-(3-cyano-5-fluorophenyl)-4-((3-fluoro-N-methylphenylsulfonamido)methyl)phenoxyacetic acid]
> 7.00 | COc1ccc(S(=O)(=O)N(C)Cc2ccc(OCC(=O)O)c(-c3cccc(S(C)(=O)=O)c3)c2)cc1 [Example 69, 2-(3-methylsulfonylphenyl)-4-((4-methoxy-N-methylphenylsulfonamido)methyl)phenoxyacetic acid]
